Here are results for four molecules from ChEMBL document CHEMBL1136103, “Structure-based drug design of pyrazinone antithrombotics as selective inhibitors of the tissue factor VIIa complex” (Bioorg Med Chem Lett, 2003).

The target in one assay is Serine protease 1 (Homo sapiens, UniProt P07477).
The target in another assay is Coagulation factor X (Homo sapiens, UniProt P00742). The assay is described as follows: Inhibitory activity against coagulation factor X.

pIC50: −log10 of the molar value. Where only a bound is given, the exact number is not on record here.

Coagulation factor X, sequence (P00742 41-179 limits assumed): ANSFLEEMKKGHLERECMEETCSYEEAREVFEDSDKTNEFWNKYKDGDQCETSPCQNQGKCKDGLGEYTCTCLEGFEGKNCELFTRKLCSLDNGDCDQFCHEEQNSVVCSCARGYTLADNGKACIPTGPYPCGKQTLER
Coagulation factor X, sequence (P00742 235-488 limits assumed): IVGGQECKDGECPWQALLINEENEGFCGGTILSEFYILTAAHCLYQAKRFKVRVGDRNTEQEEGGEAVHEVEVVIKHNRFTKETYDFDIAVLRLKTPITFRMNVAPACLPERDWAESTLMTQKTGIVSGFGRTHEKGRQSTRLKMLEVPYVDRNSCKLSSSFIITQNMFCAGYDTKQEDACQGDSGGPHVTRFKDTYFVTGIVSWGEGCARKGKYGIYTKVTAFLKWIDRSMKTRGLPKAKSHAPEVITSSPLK
Serine protease 1, sequence (P07477 whole entry): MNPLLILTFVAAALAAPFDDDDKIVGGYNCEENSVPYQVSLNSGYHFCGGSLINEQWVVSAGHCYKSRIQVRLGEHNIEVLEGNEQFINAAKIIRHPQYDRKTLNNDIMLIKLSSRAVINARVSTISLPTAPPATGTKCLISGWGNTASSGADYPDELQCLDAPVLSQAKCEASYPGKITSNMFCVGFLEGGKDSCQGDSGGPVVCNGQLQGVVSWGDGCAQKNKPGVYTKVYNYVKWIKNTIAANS
Description for Serine protease 1: Inhibitory activity against trypsin

As for `N=C(N)NCCC[C@H](NC(=O)Cn1c(Cc2ccccc2)c(Cl)nc(NCCc2ccccc2)c1=O)C(=O)c1nccs1`, the pIC50 (as a rule, −log10 of the IC50, conventionally taken in molar units) against Serine protease 1 is 6.33.
Turning to `N=C(N)c1ccc(CNC(=O)Cn2c(-c3cccc(N)c3)c(Cl)nc(NC3CCC3)c2=O)cc1`, the pIC50 on Coagulation factor X was less than 4.00; against Serine protease 1, 7.49.
In the same order, the values of `CC(C)Nc1nc(Cl)c(-c2cc(N)cc(C(=O)O)c2)n(CC(=O)NCc2ccc(C(=N)N)cc2)c1=O` are less than 4.00 and 7.19.
On to `N=C(N)NCCC[C@H](NC(=O)Cn1c(-c2ccccc2)c(Cl)nc(NCCc2ccccc2)c1=O)C(=O)c1nccs1`, for which the pIC50 against Coagulation factor X is 5.85; against Serine protease 1, 6.38.
